Assay [1] deals with A549 cells. In words: ATPLITE antiproliferative assay, A549. Type of assay: cell-based. The following applies: Homo sapiens, 72 h drug treatment. On the procedure:
(§1) A549 (Non Small Cell Lung Cancer—ATCC® CCL-185™) and MDA-MB-231 (breast adenocarcinoma—ATCC® HTB-26m) cells were cultured in Minimum Essential Medium Eagle (MEM) with 5% fetal calf serum (FCS) and Dulbecco's modified Eagle Medium (DMEM) with 10% FCS respectively. MCF7 (breast ductal carcinoma—ATCC® HTB-22m) and SN-12C (kidney carcinoma—ATCC) cells were maintained in RPMI1640 medium (without phenol red for MCF7 cells) containing 10% FCS. All the media were supplemented with fungizone (1.25 μg/mL) and penicillin-streptomycin (100 U/100 μg/mL). Cells were cultured under standard conditions in an incubator at 37° C., 5% CO2 and 95% atmospheric humidity.
(§2) Selected drugs were investigated for their antiproliferative activity using an ATPLITE® proliferation assay (Perkin Elmer, Villebon sur Yvette, France) on a comprehensive panel of 4 cell lines. […] On day 4, cell viability was evaluated by dosing the ATP released by viable cells. The number of viable cells was analyzed in comparison with the number of solvent treated cells. The EC50 values were determined with curve fitting analysis (non linear regression model with a sigmoidal dose response, variable hill slope coefficient), performed with the algorithm provided by the […]® Software ([…]® Software Inc., CA, USA).

Assay [2] concerns MDA-MB-231 cells. In words: ATPLITE antiproliferative assay, MDA-MB-231. It counts as cell-based. The following applies: Homo sapiens, 72 h drug treatment. How it is done: as §1, §2
(ATP-based viability assays read luminescence as a measure of living cells.)

Molecules are shown by their SMILES. Where a SMILES comes first, the peptide text is derived from it. [ ]: non-standard residue; d: D form. The star is where a group is joined. Dolaproine = CO[C@@H]([C@@H]1CCCN1)[C@@H](C)C(=O)O; Dil = CC[C@H](C)[C@H](NC)[C@@H](CC(=O)O)OC; X2 = CC(C)[C@@H](C(=O)*)N(C)CCc1ccc(O)cc1

As for `CC[C@H](C)[C@@H]([C@@H](CC(=O)N1CCC[C@H]1[C@H](OC)[C@@H](C)C(=O)N[C@@H](Cc1ccccc1)C(=O)OC)OC)N(C)C(=O)[C@@H](NC(=O)[C@H](C(C)C)N(C)CCc1ccc(O)cc1)C(C)C` [Compound 27, methyl (S)-2-((2R,3R)-3-((S)-1-((3R,4S,5S)-4-((S)-2-((S)-2-((4-hydroxyphenethyl)(methyl)amino)-3-methylbutanamido)-N,3-dimethylbutanamido)-3-methoxy-5-methylheptanoyl)pyrrolidin-2-yl)-3-methoxy-2-methylpropanamido)-3-phenylpropanoate, trifluoroacetic acid] (X2-V[Dil][Dolaproine]F-OMe), the half-maximal effective concentration (EC50) (usually the concentration needed to bring the measured effect to its halfway point) in assay [1] worked out at 0.086 nM; in assay [2], 0.12 nM.

The values above are taken from patent US10912841B2, “Antibody-drug-conjugate and its use for the treatment of cancer” (PIERRE FABRE MEDICAMENT, priority 2014, dated 2021).
